Where “and” joins values, the source holds several entries; their conditions need not be identical. Equal values may be shown once. Read-outs that look alike come from different tables or passages of the source. Marks after values point to notes of the source that are not given here.
How the values were obtained:
[1] = system: mice; assay: “Writhing” test in mice (phenylbenzoquinone); type: in vivo; conditions: for ED50: Mus musculus, ip, read-out: ED50 (mg/kg) ± SEM, writhing test
Experimental: (§1) The experiments were carried out on male albino Swiss mice (body weight 18–26 g). All of the animals were housed at constant humidity (60%) and temperature (25 °C) and kept on a 12 h light/dark cycle. Animals were fed a standard pellet diet with free access to tap water. All procedures were conducted according to Animal Care and Use Committee guidelines, and approved by the Ethical Committee of Jagiellonian University, Kraków.
(§2) Control and experimental groups consisted of 6–8 animals each. The investigated compounds were administered intraperitoneally as a suspension in 0.5% methylcellulose in a constant volume of 10 mL/kg.
(§3) The statistical significance was calculated using a Student’s t-test. The ED50 values and their confidence limits were calculated according to the method of Litchfield and Wilcoxon.
(§4) Pain reactivity was measured in two tests: “hot plate” test (according to the method of Eddy and Leimbach) and “writhing” test in mice (according to Hendershot and Forsaith).
Then, after 25 min, the irritant (phenylbenzoquinone, 0.02% solution, ethanol-water, 5:95) was also administered intraperitoneally in a constant volume of 0.25 mL. Five min after the application of the irritant,a 10 min long period of observation started, in which the number of writhing episodes was counted.
The analgesic effect of individual doses was expressed in percent:(1) % Analgesic effect=100−∑ of writing incidents in experimental group/∑ of writhing incidents in control group×100

[2] = in vivo; type: in vivo; conditions: male, albino Swiss, mouse, in vivo, ip; mice, intraperitoneal, mortality after 24 h; confidence limits in parentheses
Experimental: as §1, §2

[3] = system: mice; assay: Spontaneous locomotor activity in mice (photoresistor actometers); type: in vivo; conditions: for ED50: confidence limits in parentheses, read-out: ED50 (mg/kg) ± SEM, spontaneous locomotor activity; for Number of impulses ± SEM (30min): i.p.
Experimental: as §1, §2
Spontaneous locomotor activity in mice was measured in circular photoresistoractometers (32 cm in diameter). […] Thirty minutes after the injection of the investigated compounds, mice were placed in the actometers for 30 min. Each crossing of the light beam was recorded automatically. The amount of impulses was noted after 30 min.

[4] = system: mice; assay: “Hot plate” test in mice; type: in vivo; conditions: mice; for analgesic effect in the hot plate test (in words): applied doses (Table 4)
Experimental: as §1, §2, §3, §4
Animals were placed individually on the metal plate, heated to 55 ± 1 °C. The latency time (s) to the pain reaction (licking of the hind paws or jumping) was recorded by a stop-watch. A cutoff time of 45 s was used to prevent tissue damage.

[5] = system: mice; assay: Thiopental anesthesia (thiopental-induced sleep); type: in vivo; conditions: for Prolongation (%) of thiopental anesthesia / Duration of Anesthesia ± SEM: i.p.; for Duration of Anesthesia ± SEM: thiopental
Excerpt: The pilot biological studies for imides 9 and 11 were supplemented with the determination of the effect of the intraperitoneal administration of the test compounds on the duration of thiopental-induced sleep. The mechanism and the degree of crossing the blood–brain barrier has not been precisely defined. The observed sedative effects may indicate good penetration of compounds into the central nervous system, which, however, has not been confirmed.
as §2

[6] = system: mice; parameters: method as in PMID 11234340, PMID 12484538, PMID 15652370; conditions: cited from earlier work; for % Inh. of locomotor activity: series 1
[7] = system: mice; conditions: compounds obtained previously (series 1 and 2); cited from earlier work
[8] = system: mice; parameters: method as in PMID 11234340, PMID 12484538, PMID 15652370; conditions: series 1, cited from earlier work
[9] = target: T1, µ receptor of the rat cerebral cortex (Rattus norvegicus, UniProt P33535); assay: Displacement of [3H-DHM] from µ receptor binding sites of rat cerebral cortex; conditions: read-out: Dihydromorphine [3H-DHM] Ki
T1 construct: from tissue; host or cells: rat cerebral cortex
T1 sequence (P33535 whole entry): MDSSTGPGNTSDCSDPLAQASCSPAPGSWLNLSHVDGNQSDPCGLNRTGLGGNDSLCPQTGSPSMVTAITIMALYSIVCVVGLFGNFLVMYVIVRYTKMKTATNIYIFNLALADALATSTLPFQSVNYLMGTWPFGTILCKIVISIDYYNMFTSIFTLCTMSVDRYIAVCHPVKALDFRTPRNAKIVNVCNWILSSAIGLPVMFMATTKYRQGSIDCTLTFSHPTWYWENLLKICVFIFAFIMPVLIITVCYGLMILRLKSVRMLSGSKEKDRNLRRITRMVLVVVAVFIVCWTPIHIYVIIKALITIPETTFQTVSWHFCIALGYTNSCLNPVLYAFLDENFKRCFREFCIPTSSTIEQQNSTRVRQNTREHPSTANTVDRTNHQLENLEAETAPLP

[10] = confidence limits in parentheses
[11] = Mus musculus, ip, dose 12.5 mg/kg, read-out: Degree of motor inhibition (%)
[12] = Mus musculus, ip, dose 25 mg/kg, read-out: Degree of motor inhibition (%)
[13] = Mus musculus, ip, dose 50 mg/kg, read-out: Degree of motor inhibition (%)
[14] = Mus musculus, ip, 0.5 h, hot plate, dose 100 mg/kg, read-out: Prolonged Time (%)
[15] = Mus musculus, ip, 0.5 h, hot plate, dose 200 mg/kg, read-out: Prolonged Time (%)

SMILES	ED50 [1, 10] [mg/kg]	Mean no. of writhing ± SEM ([1]; i.p., dose 12.5 mg/kg)	Mean no. of writhing ± SEM ([1]; i.p., dose 50 mg/kg)	LD50 at 24 h [2] [mg/kg]	ED50 ([3]; Mus musculus, ip) [mg/kg]	inhibition at 12.5 mg/kg [3, 11] [%]	inhibition at 25 mg/kg [3, 12] [%]	inhibition at 50 mg/kg [3, 13] [%]	Number of impulses ± SEM (30min) ([3]; dose 12.5 mg/kg)	Number of impulses ± SEM (30min) ([3]; dose 25 mg/kg)	Number of impulses ± SEM (30min) ([3]; dose 50 mg/kg)	change in vivo at 100 mg/kg [4, 14] [%]	change in vivo at 200 mg/kg [4, 15] [%]	Time of Reaction to Pain Stimulus (s) ± SEM ([4]; hot plate, dose 100 mg/kg) [s]	Time of Reaction to Pain Stimulus (s) ± SEM ([4]; hot plate, dose 200 mg/kg) [s]	Mean no. of writhing ± SEM ([1]; i.p., dose 25 mg/kg)	analgesic effect in the hot plate test (in words) [4]	other results
COc1ccccc1N1CCN(CCN2C(=O)c3cc(C)nc(OC)c3C2=O)CC1 [Compound 11]	3.67	4.3 ± 1.1	1.4 ± 0.6	> 2000	19.7	55.4	55.9	68.7	201 ± 74	199.1 ± 48	141 ± 63	23	50.7	24.0 ± 5.0	29.4 ± 5.0	–	–	ED50 (mg/kg) ± SEM, writhing test ([1]; i.p., confidence limits in parentheses): 3.25 mg/kg; Mean no. of writhing ± SEM ([1]; i.p., dose 3.125 mg/kg): 17.7 ± 2.4; Mean no. of writhing ± SEM ([1]; i.p., dose 6.25 mg/kg): 6.0 ± 2.8; inhibition at 6.25 mg/kg ([3]; Mus musculus, ip, dose 6.25 mg/kg, read-out: Degree of motor inhibition (%)): 28.2%; Number of impulses ± SEM (30min) ([3]; dose 6.25 mg/kg): 324 ± 49; change in vivo at 400 mg/kg ([4]; Mus musculus, ip, 0.5 h, hot plate, dose 400 mg/kg, read-out: Prolonged Time (%)): 105%; Time of Reaction to Pain Stimulus (s) ± SEM ([4]; hot plate, dose 400 mg/kg): 40.0 ± 8.5 s; Prolongation (%) of thiopental anesthesia ([5]; dose 12.5 mg/kg): 36.3%; Prolongation (%) of thiopental anesthesia ([5]; dose 25 mg/kg): 16.11%; Prolongation (%) of thiopental anesthesia ([5]; dose 50 mg/kg): 140.8 *** % and 140.8%; effect on duration of thiopental anesthesia (in words) ([5]; mouse, in vivo): extended the duration of thiopental anesthesia; Duration of Anesthesia ± SEM ([5]; dose 12.5 mg/kg): 70.2 ± 24 min; Duration of Anesthesia ± SEM ([5]; dose 25 mg/kg): 50.8 ± 14.2 min; Duration of Anesthesia ± SEM ([5]; dose 50 mg/kg): 124 ± 16.2 min
COc1nc(C)cc2c1C(=O)N(CCCCN1CCOCC1)C2=O [Compound 8, 4-methoxy-6-methyl-4-(N-morpholino)-butyl-1H-pyrrolo[3,4-c]pyridine-1,3-(2H)-dion]	–	19.8 ± 2.1	–	> 2000	34.2	32.8	35.4	61.6	312 ±26	299 ± 59	178 ± 30	3.87	27.5	10.2 ± 1.8	12.2 ± 1.4	6.2 ± 0.9	not statistically significant	inhibition at 5 mg/kg ([3]; Mus musculus, ip, dose 5 mg/kg, read-out: Degree of motor inhibition (%)): 18.1%; Number of impulses ± SEM (30min) ([3]; dose 5 mg/kg): 387 ± 24
CCOc1nc(C)cc2c1C(=O)N(CCN1CCN(c3ccccc3)CC1)C2=O [Compound 10]	15.8 ± 0.91	–	2.1 ± 0.6	> 2000	84 ± 5.1	–	49.2	55.1	–	224 ± 45	198 ± 54	6.98	34.9	18.4 ± 1.7	23.2 ± 2.6	7.9 ± 2.1	not statistically significant	Mean no. of writhing ± SEM ([1]; i.p., dose 100 mg/kg): 0.9 ± 0.1; inhibition at 100 mg/kg ([3]; Mus musculus, ip, dose 100 mg/kg, read-out: Degree of motor inhibition (%)): 6.8%; Number of impulses ± SEM (30min) ([3]; dose 100 mg/kg): 142 ± 29
COc1ccccc1N1CCN(CCCN2C(=O)c3cc(C)nc(OC)c3C2=O)CC1 [Compound 1I]	–	–	–	–	–	–	–	–	–	–	–	–	–	–	–	–	–	% Inh. of locomotor activity ([6]; dose 12.5 mg/kg): 53.91%; % Inh. of locomotor activity ([6]; dose 25 mg/kg): 72.77%; % Inh. of locomotor activity ([6]; dose 50 mg/kg): 76.69%; ED50, influence on the locomotor activity ([6]; imides described previously (series 1)): 11.8 mg/kg; ED50, writhing test [7]: 0.67 mg/kg; Thiopental Anesthesia % Prolong. ([8]; dose 12.5 mg/kg): 123.3%; Thiopental Anesthesia % Prolong. ([8]; dose 25 mg/kg): 140.3%; Thiopental Anesthesia % Prolong. ([8]; dose 50 mg/kg): 207.2%; Ki [9]: 30.8 ± 47.8 µM

Reference: PMC7764601 (Molecules, 2020)
